Changes are numbered by the printed parent chain.

The target of series [1] is T1, METL-9 (recombinant GST-METL-9) (Caenorhabditis elegans, UniProt Q22123, N172K/D274G).
T1 sequence (Q22123 1-311 N172K/D274G): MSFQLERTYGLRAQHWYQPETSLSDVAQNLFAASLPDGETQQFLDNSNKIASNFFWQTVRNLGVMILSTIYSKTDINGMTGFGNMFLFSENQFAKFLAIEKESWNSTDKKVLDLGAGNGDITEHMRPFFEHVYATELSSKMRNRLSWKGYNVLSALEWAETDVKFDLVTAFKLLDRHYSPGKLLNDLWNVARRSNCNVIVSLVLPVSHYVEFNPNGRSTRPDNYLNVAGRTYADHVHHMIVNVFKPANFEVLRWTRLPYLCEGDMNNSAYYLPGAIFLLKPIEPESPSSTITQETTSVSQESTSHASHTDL
The series is described as follows: in vitro DNA 6mA methylation, LC-MS/MS. The conditions noted are these: biotin-ssDNA oligo 2 uM, d3-SAM 0.1 mM, HEPES pH 7.5, 2.5 mM MgCl2, 80 mM KCl, 20 °C; methyl donor; labelled compound. Format: biochemical.

Series [2] concerns the target mouse Mettl9 (recombinant GST-Mettl9) (Mus musculus, UniProt Q9EPL4). The series can be described thus: in vitro DNA 6mA methylation, LC-MS/MS. The conditions noted are these: biotin-ssDNA or bubbled DNA with GAGG motif 2 uM, SAM or d3-SAM 0.1 mM (which one only in supplement), pH 7.5, 2.5 mM MgCl2, 25 °C; methyl donor. Format: biochemical.
Substrate in the series “purified protein”: C[S+](CC[C@H](N)C(=O)O)C[C@H]1O[C@@H](n2cnc3c(N)ncnc32)[C@H](O)[C@@H]1O
The series can be described thus: purified protein. The conditions noted are these: ssDNA oligo 5 uM, varied d3-SAM, HEPES pH 7.5, 2.5 mM MgCl2, 80 mM KCl, 20 °C, methyl donor, labelled compound.

Chain of mouse Mettl9 (recombinant GST-Mettl9) (Q9EPL4 whole entry): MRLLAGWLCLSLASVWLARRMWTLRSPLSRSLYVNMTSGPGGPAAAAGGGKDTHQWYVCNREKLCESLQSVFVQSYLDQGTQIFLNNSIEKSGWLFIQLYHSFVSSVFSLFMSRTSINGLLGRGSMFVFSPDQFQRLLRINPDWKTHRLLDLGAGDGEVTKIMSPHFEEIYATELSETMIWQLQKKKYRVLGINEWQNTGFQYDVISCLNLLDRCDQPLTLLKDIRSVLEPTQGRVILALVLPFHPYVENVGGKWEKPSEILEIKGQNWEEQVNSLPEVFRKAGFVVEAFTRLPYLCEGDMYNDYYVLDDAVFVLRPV

On to `C[S+](CC[C@H](N)C(=O)O)C[C@H]1O[C@@H](n2cnc3c(N)ncnc32)[C@H](O)[C@@H]1O` (stereo partly shown) [d3-SAM], for which the “in vitro DNA 6mA methylation, LC-MS/MS” value in series [1] is listed as “double mutant (M8 + M10, metl-9^mut) almost completely abolished the 6mA methyltransferase activity of METL-9”.
`C[S+](CC[C@H](N)C(=O)O)C[C@H]1O[C@@H](n2cnc3c(N)ncnc32)[C@H](O)[C@@H]1O` (stereo partly shown) [SAM]: the “in vitro DNA 6mA methylation, LC-MS/MS” value in series [2] is “mouse Mettl9 protein showed 6mA methyltransferase activity towards ssDNA and bubbled DNA”.

B1: METL-9 (recombinant GST-METL-9) (Caenorhabditis elegans) (protein)
chain: T1 sequence (Q22123 1-311 N172K/D274G) with K172N, G274D
By Km is commonly meant the substrate concentration at which the rate is half of its maximum. For orientation: kcat means the number of substrate molecules converted per active site and unit of time at saturation. In the case of B1, in “purified protein”, the Km is 37.69 ± 3.75 µM and the kcat turned out to be 0.00131 ± 5.83e-05 s⁻¹.

Values taken from article PMC10397248, “A novel N^6-Deoxyadenine methyltransferase METL-9 modulates C. elegans immunity via dichotomous mechanisms” (Cell Research, 2023).
